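Interpolation was linear, between the two tested concentrations surrounding the appropriate level; five concentrations were tested over 48 hours in 96-well plates. Abbreviation: GI50, concentration required for 50% inhibition of growth. TGI denotes the concentration required for complete inhibition of growth.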
Tests used:
Experiment in all cases: DTP human tumour cell line panel, 48 h
SF-539 CNS = system: SF-539 CNS
HCT-15 colon = system: HCT-15 colon
CCRF-CEM leukemia = system: CCRF-CEM leukemia
OVCAR-3 ovarian = system: OVCAR-3 ovarian
LOX IMVI melanoma = system: LOX IMVI melanoma
SK-MEL-5 melanoma = system: SK-MEL-5 melanoma
UACC-62 melanoma = system: UACC-62 melanoma
SK-MEL-28 melanoma = system: SK-MEL-28 melanoma
HOP-62 NSCLC = system: HOP-62 NSCLC
UO-31 renal = system: UO-31 renal
RXF 393 renal = system: RXF 393 renal
SF-295 CNS = system: SF-295 CNS
T-47D breast = system: T-47D breast
MDA-MB-435 = system: MDA-MB-435
MALME-3M melanoma = system: MALME-3M melanoma
HS 578T breast = system: HS 578T breast
UACC-257 melanoma = system: UACC-257 melanoma
SN12C renal = system: SN12C renal
SK-MEL-2 melanoma = system: SK-MEL-2 melanoma
NCI-H460 lung = system: NCI-H460 lung
EKVX NSCLC = system: EKVX NSCLC
COLO 205 colon = system: COLO 205 colon
NCI-H23 lung = system: NCI-H23 lung
SNB-19 CNS = system: SNB-19 CNS
MCF7 breast = system: MCF7 breast
OVCAR-8 ovarian = system: OVCAR-8 ovarian
NCI-H522 lung = system: NCI-H522 lung
TK-10 renal = system: TK-10 renal
HT29 colon = system: HT29 colon
IGROV1 ovarian = system: IGROV1 ovarian
BT-549 breast = system: BT-549 breast
HCC-2998 colon = system: HCC-2998 colon
DU-145 prostate = system: DU-145 prostate
SK-OV-3 ovarian = system: SK-OV-3 ovarian
HCT-116 colon = system: HCT-116 colon
PC-3 prostate = system: PC-3 prostate
MOLT-4 leukemia = system: MOLT-4 leukemia
SF-268 CNS = system: SF-268 CNS
OVCAR-4 ovarian = system: OVCAR-4 ovarian
RPMI-8226 leukemia = system: RPMI-8226 leukemia
NCI/ADR-RES ovarian = system: NCI/ADR-RES ovarian
MDA-MB-231 breast = system: MDA-MB-231 breast
HOP-92 NSCLC = system: HOP-92 NSCLC
NCI-H226 lung = system: NCI-H226 lung
K-562 leukemia = system: K-562 leukemia
SW-620 colon = system: SW-620 colon
SNB-75 CNS = system: SNB-75 CNS
KM12 colon = system: KM12 colon
CAKI-1 renal = system: CAKI-1 renal
ACHN renal = system: ACHN renal
786-0 renal = system: 786-0 renal
SR leukemia = system: SR leukemia
HL-60(TB) leukemia = system: HL-60(TB) leukemia
A549 NSCLC = system: A549 NSCLC
OVCAR-5 ovarian = system: OVCAR-5 ovarian
A498 renal = system: A498 renal
M14 melanoma = system: M14 melanoma
U251 CNS = system: U251 CNS

O=C1CCc2c(Oc3ccc4c(c3)[C@H]3[C@@H](O4)[C@@H]3c3nc4ccc(C(F)(F)F)cc4[nH]3)ccnc2N1
GI50 (SF-539 CNS): 4660 nM | TGI (SF-539 CNS): > 100000 nM | GI50 (HCT-15 colon): 2400 nM | TGI (HCT-15 colon): > 100000 nM | GI50 (CCRF-CEM leukemia): 3540 nM | TGI (CCRF-CEM leukemia): > 100000 nM | GI50 (OVCAR-3 ovarian): 4180 nM | TGI (OVCAR-3 ovarian): > 100000 nM | GI50 (LOX IMVI melanoma): 102 nM | TGI (LOX IMVI melanoma): 4650 nM | GI50 (SK-MEL-5 melanoma): 435 nM | TGI (SK-MEL-5 melanoma): 2910 nM | GI50 (UACC-62 melanoma): 21.5 nM | TGI (UACC-62 melanoma): 1410 nM | GI50 (SK-MEL-28 melanoma): 32.6 nM | TGI (SK-MEL-28 melanoma): 3800 nM | GI50 (HOP-62 NSCLC): 2450 nM | TGI (HOP-62 NSCLC): > 100000 nM | GI50 (UO-31 renal): 693 nM | TGI (UO-31 renal): > 25300 nM | GI50 (RXF 393 renal): 4030 nM | TGI (RXF 393 renal): > 100000 nM | GI50 (SF-295 CNS): 3630 nM | TGI (SF-295 CNS): > 100000 nM | GI50 (T-47D breast): 1370 nM | TGI (T-47D breast): > 27100 nM | GI50 (MDA-MB-435): 68.2 nM | TGI (MDA-MB-435): > 100000 nM | GI50 (MALME-3M melanoma): < 13.7 nM | TGI (MALME-3M melanoma): 61.3 nM | GI50 (HS 578T breast): 5410 nM | TGI (HS 578T breast): > 100000 nM | GI50 (UACC-257 melanoma): 32.3 nM | GI50 (SN12C renal): 2210 nM | TGI (SN12C renal): > 100000 nM | GI50 (SK-MEL-2 melanoma): 242 nM | TGI (SK-MEL-2 melanoma): 1670 nM | GI50 (NCI-H460 lung): 2410 nM | TGI (NCI-H460 lung): > 100000 nM | GI50 (EKVX NSCLC): 2990 nM | TGI (EKVX NSCLC): > 100000 nM | GI50 (COLO 205 colon): 35.9 nM | TGI (COLO 205 colon): 8390 nM | GI50 (NCI-H23 lung): 1420 nM | TGI (NCI-H23 lung): > 100000 nM | GI50 (SNB-19 CNS): 4520 nM | TGI (SNB-19 CNS): > 100000 nM | GI50 (MCF7 breast): 2250 nM | TGI (MCF7 breast): > 100000 nM | GI50 (OVCAR-8 ovarian): 3120 nM | TGI (OVCAR-8 ovarian): > 100000 nM | GI50 (NCI-H522 lung): 903 nM | TGI (NCI-H522 lung): > 28100 nM | GI50 (TK-10 renal): 1610 nM | TGI (TK-10 renal): > 30300 nM | GI50 (HT29 colon): 30.2 nM | TGI (HT29 colon): > 37600 nM | GI50 (IGROV1 ovarian): 1190 nM | TGI (IGROV1 ovarian): > 100000 nM | GI50 (BT-549 breast): 3220 nM | TGI (BT-549 breast): > 100000 nM | GI50 (HCC-2998 colon): 3080 nM | TGI (HCC-2998 colon): > 100000 nM | GI50 (DU-145 prostate): 4120 nM | TGI (DU-145 prostate): > 100000 nM | GI50 (SK-OV-3 ovarian): 3540 nM | TGI (SK-OV-3 ovarian): > 100000 nM | GI50 (HCT-116 colon): 406 nM | TGI (HCT-116 colon): > 100000 nM | GI50 (PC-3 prostate): 3970 nM | TGI (PC-3 prostate): > 100000 nM | GI50 (MOLT-4 leukemia): 1660 nM | TGI (MOLT-4 leukemia): > 100000 nM | GI50 (SF-268 CNS): 2730 nM | TGI (SF-268 CNS): > 100000 nM | GI50 (OVCAR-4 ovarian): 2020 nM | TGI (OVCAR-4 ovarian): > 100000 nM | GI50 (RPMI-8226 leukemia): 2560 nM | TGI (RPMI-8226 leukemia): > 100000 nM | GI50 (NCI/ADR-RES ovarian): 2830 nM | TGI (NCI/ADR-RES ovarian): > 100000 nM | GI50 (MDA-MB-231 breast): 610 nM | TGI (MDA-MB-231 breast): 8280 nM | GI50 (HOP-92 NSCLC): 1180 nM | TGI (HOP-92 NSCLC): 5680 nM | GI50 (NCI-H226 lung): 1100 nM | TGI (NCI-H226 lung): > 100000 nM | GI50 (K-562 leukemia): 38.1 nM | GI50 (SW-620 colon): 2430 nM | TGI (SW-620 colon): > 100000 nM | GI50 (SNB-75 CNS): 4390 nM | TGI (SNB-75 CNS): > 100000 nM | GI50 (KM12 colon): 690 nM | TGI (KM12 colon): > 100000 nM | GI50 (CAKI-1 renal): 1470 nM | TGI (CAKI-1 renal): > 100000 nM | GI50 (ACHN renal): 711 nM | TGI (ACHN renal): > 100000 nM | GI50 (786-0 renal): 6280 nM | TGI (786-0 renal): > 100000 nM | GI50 (SR leukemia): 2560 nM | TGI (SR leukemia): > 25200 nM | GI50 (HL-60(TB) leukemia): 237 nM | TGI (HL-60(TB) leukemia): 3140 nM | GI50 (A549 NSCLC): 2520 nM | TGI (A549 NSCLC): > 100000 nM | GI50 (OVCAR-5 ovarian): 1070 nM | TGI (OVCAR-5 ovarian): > 100000 nM | GI50 (A498 renal): 1120 nM | TGI (A498 renal): 4240 nM | GI50 (M14 melanoma): 26 nM | TGI (M14 melanoma): 2710 nM | GI50 (U251 CNS): 3920 nM | TGI (U251 CNS): > 100000 nM

From PubChem BioAssay (NCI)
